This is an account of results in BindingDB's records for doi:10.1107/s0907444999007350 (Berlex, 1999).

Chain of Coagulation factor X (P00742 41-179 limits assumed): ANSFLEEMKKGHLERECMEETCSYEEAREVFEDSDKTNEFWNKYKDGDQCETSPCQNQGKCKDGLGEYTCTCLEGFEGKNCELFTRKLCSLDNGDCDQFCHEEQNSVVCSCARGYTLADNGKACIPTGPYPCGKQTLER
Chain of Coagulation factor X (P00742 235-488 limits assumed): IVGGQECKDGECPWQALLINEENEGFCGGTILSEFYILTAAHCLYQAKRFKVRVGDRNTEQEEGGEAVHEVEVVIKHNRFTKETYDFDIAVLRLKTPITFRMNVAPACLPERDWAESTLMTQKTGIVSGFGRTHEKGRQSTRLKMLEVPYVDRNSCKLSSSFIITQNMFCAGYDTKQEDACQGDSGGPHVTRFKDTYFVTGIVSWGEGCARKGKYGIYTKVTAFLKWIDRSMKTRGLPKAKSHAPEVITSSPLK

The test addresses Coagulation factor X (Homo sapiens, UniProt P00742). The test can be described thus: Enzyme Inhibition Assay. As to conditions: pH 7.5; 22 °C. On the procedure: The enzyme activities were determined kinetically as the initial rate of cleavage of a peptide p-nitroanilide. Km for enzyme and substrate was determined using four substrate dilutions. Enzyme was incubated with test compounds for 10 min; the reaction was then started by the addition of the substrate. […] IC50 values for inhibitors were determined from the dose response curve by fitting the data to the Hill equation. Ki,app values were calculated as the IC50/2, with the IC50 value determined at a substrate concentration equal to Km
As to `Cc1c(F)c(Oc2cccc(C(=N)N)c2)nc(Oc2cccc(C(=N)N)c2)c1F`, the affinity, expressed as Ki, was 14 nM. This counts as double-digit nanomolar.

On to `CN1CCN=C1c1cccc(Oc2nc(Oc3cc(C(=N)N)ccc3O)c(F)c(N3CCCC(C(=O)O)C3)c2F)c1` (stereo not drawn) [1-[2-(5-carbamimidoyl-2-hydroxyphenoxy)-3,5-difluoro-6-[3-(1-methyl-4,5-dihydro-1H-imidazol-2-yl)phenoxy]pyridin-4-yl]piperidine-3-carboxylic acid], for which the affinity corresponds to a Ki of 0.11 nM.

As for `[H]/N=C(/C)N1CCC(Oc2ccc3c4ccccc4n(Cc4ccc5ccc(C(=N)N)cc5c4)c3c2)CC1` [ZK-806450], the Ki came out at 1.6 nM. Against the preceding molecule, the Ki is about 15-fold higher.
